The record followed here is US12728137B2, “Methods of treating cancer with a combination of mithramycin and immunotherapy” (University of South Florida, priority 2019, dated 2026).

The subject of this test is CT26 cells. In words: CT26 cell viability with TGFβI and/or Mit-A (CellTiter-Glo). The note with it: LY2109761 (5 μM) and/or 150 nM Mit-A for 48 hrs; FIG. 9. Type of test: cell-based, mouse. On the procedure:
FIG. 9 depicts a bar graph of cell viability assayed by CellTiter-Glo of CT26 cells that were cultured in the presence of TGFβI, LY2109761 (5 μM) and/or 150 nM Mit-A for 48 hrs.
Mit-A potentiates the inhibitory effects of transforming growth factor β (TGFβ): TGFβ activated stroma is one of the defining features of MSS CRCs^33. […] However, inhibition of TGFβ in these tumors induced a potent anti-tumor response. Since Sp1 is implicated in TGFβ induced tumor invasion, whether inhibition of TGFβ signaling will promote sensitization of CT26 cells to Mit-A was examined.
Background: ATP-based viability assays read luminescence as a measure of living cells.

Regarding `c1ccc(-c2nn3c(c2-c2ccnc4cc(OCCN5CCOCC5)ccc24)CCC3)nc1` [LY2109761], the CT26 cell viability result is reported as “did not inhibit”.
